# Data from ChEMBL document CHEMBL1201862, “PubChem BioAssay data set” (2004).
# Activity calls are given as the source filed them.
# Key:
# [1] = molecular target: Protein Rev (Human immunodeficiency virus type 1 group M subtype B (isolate HXB2)(HIV-1), UniProt P04618); assay: blockers of HIV Rev/RRE RNA complex – biochemical, fluorescence polarization, HIV-1, dose response (AID 434976); design: species or system Human immunodeficiency virus 1
# [2] = molecular target: Female germline-specific tumor suppressor gld-1 (Caenorhabditis elegans, UniProt Q17339); assay: blockers of GLD-1/TGE RNA complex formation – biochemical, fluorescence polarization, C. elegans, dose response (AID 2802);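 note: fluorescence polarization of labeled TGE RNA bound by purified gld-1 protein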
# Sequence of Female germline-specific tumor suppressor gld-1 (Q17339 whole entry, the tested form may be a part): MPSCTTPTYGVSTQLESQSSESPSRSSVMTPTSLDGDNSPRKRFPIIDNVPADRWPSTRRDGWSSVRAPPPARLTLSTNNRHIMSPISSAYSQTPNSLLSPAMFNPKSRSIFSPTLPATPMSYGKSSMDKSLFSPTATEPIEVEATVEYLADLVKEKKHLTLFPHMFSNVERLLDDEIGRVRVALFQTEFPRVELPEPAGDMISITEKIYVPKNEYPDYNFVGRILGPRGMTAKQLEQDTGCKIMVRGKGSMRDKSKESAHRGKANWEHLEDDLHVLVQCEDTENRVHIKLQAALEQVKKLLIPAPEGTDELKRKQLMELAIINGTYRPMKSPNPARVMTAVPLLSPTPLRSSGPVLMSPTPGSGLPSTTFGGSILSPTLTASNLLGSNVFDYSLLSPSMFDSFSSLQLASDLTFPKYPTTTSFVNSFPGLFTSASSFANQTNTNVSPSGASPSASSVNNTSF
# [3] = molecular target: T1, RNA-binding protein pos-1 (Caenorhabditis elegans, UniProt G5EF15); assay: disruptors of C. elegans POS-1 RNA interaction – biochemical, fluorescence polarization, dose response (AID 1964);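 note: purified POS-1 fused to maltose binding protein made in E. coli; potency of compounds blocking POS-1 binding to fluorescent RNA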
# T1 sequence (G5EF15 whole entry): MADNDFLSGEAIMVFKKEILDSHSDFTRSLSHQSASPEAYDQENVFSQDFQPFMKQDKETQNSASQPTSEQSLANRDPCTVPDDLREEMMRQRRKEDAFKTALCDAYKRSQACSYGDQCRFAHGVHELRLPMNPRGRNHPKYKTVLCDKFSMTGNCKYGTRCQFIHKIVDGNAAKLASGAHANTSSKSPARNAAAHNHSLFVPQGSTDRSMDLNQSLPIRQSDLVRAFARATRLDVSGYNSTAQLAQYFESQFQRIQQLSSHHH
# [4] = molecular target: T2, Zinc finger protein mex-5 (Caenorhabditis elegans, UniProt Q9XUB2); assay: potency of MEX-5 RNA-binding blockers – biochemical, C. elegans, fluorescence polarization, dose response (AID 1960)
# T2 sequence (Q9XUB2 whole entry): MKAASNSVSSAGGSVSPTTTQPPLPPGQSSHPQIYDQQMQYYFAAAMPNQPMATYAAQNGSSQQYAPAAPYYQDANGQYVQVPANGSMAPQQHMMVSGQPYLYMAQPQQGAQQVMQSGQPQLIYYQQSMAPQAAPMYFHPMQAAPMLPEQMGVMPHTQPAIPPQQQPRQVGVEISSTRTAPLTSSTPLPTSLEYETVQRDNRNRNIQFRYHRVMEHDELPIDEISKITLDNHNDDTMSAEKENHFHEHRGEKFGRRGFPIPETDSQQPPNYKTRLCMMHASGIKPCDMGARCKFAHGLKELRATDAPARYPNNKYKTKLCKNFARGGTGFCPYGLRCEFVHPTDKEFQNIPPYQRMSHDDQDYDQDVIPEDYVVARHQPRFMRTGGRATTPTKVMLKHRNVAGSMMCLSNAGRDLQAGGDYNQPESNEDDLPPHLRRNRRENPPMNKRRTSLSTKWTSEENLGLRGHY
# [5] = molecular target: Genome polyprotein (dengue virus type 2, UniProt P29990); assay: flavivirus cap methylation enzyme inhibition – biochemical, confirmation dose response, primary screen (AID 588689); assay type: functional
# Sequence of Genome polyprotein (P29990 2492-3391 limits assumed): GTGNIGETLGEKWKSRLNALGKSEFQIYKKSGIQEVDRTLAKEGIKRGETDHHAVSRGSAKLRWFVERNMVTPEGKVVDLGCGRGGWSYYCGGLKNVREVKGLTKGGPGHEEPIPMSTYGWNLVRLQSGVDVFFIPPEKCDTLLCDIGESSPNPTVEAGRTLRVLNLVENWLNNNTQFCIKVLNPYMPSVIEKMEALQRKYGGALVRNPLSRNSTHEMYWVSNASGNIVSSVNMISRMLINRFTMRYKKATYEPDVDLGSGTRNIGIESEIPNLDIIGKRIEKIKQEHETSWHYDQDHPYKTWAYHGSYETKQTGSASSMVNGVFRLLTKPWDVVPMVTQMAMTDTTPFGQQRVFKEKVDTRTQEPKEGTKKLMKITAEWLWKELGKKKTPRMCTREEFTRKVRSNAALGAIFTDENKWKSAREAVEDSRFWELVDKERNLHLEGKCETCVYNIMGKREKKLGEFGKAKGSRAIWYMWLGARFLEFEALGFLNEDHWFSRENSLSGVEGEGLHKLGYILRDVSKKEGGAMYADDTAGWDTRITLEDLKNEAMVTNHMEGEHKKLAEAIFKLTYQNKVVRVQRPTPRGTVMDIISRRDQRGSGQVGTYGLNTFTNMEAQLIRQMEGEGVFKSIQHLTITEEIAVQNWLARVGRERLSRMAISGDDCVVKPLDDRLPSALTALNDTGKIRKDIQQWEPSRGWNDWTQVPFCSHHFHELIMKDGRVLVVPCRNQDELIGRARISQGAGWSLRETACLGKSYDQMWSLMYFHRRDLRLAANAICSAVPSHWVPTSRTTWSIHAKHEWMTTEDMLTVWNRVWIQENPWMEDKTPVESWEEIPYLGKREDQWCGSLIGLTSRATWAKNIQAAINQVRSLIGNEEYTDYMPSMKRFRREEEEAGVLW
# [6] = molecular target: T3, Polyadenylate-binding protein 1 (Homo sapiens, UniProt P11940); assay: MLLE binding blockers, Cy5 peptide tracer – biochemical, fluorescence polarization, Cy5-PAM2 peptide, secondary, miRNA deadenylation inhibitor project, dose response (AID 602260); assay type: functional; details: read-out: IC50_Mean
# T3 sequence (P11940 whole entry, the tested form may be a part): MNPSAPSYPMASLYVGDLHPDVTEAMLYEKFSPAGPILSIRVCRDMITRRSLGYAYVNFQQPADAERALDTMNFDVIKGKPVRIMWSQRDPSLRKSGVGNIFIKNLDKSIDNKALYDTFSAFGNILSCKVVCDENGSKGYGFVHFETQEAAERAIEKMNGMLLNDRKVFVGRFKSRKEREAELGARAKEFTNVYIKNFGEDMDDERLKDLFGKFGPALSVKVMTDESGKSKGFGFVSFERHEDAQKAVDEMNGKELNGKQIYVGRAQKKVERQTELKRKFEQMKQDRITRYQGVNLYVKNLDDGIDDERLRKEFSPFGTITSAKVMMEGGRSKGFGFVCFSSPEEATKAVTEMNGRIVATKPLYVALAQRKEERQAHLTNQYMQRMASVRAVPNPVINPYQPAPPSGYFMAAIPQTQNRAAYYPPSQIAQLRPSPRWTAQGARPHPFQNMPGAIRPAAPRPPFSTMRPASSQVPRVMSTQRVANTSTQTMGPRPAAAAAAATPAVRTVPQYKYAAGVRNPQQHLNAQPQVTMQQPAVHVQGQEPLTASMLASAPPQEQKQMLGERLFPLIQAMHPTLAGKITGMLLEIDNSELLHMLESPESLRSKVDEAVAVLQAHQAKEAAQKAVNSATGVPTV
# [7] = molecular target: T3, Polyadenylate-binding protein 1; assay: MLLE domain peptide-binding blockers, IC50 – biochemical, fluorescence polarization, FITC-PAM2 peptide, dose response (AID 602259); assay type: functional; details: read-out: IC50_Mean
# [8] = molecular target: Potassium voltage-gated channel subfamily KQT member 2 (Rattus norvegicus, UniProt O88943); assay: potentiation of rat KCNQ2 current – cell-based, retigabine-insensitive compounds, dose response (AID 2654); assay type: functional
# [9] = molecular target: Glucose-6-phosphate 1-dehydrogenase (Homo sapiens, UniProt P11413); assay: inhibition of Homo sapiens G6PD, dose series – biochemical, fluorescence, selectivity assay for P. falciparum G6PD inhibitor project, dose response (AID 504792); assay type: functional
# [10] = molecular target: Beta-galactosidase (Escherichia coli, UniProt Q8VNN2); assay: detection-enzyme interference by beta-gal modulators – biochemical, E. coli enzyme, set 3, artefact control for CCR6 antagonist project, dose response (AID 504712); assay type: functional
# Sequence of Beta-galactosidase (Q8VNN2 whole entry): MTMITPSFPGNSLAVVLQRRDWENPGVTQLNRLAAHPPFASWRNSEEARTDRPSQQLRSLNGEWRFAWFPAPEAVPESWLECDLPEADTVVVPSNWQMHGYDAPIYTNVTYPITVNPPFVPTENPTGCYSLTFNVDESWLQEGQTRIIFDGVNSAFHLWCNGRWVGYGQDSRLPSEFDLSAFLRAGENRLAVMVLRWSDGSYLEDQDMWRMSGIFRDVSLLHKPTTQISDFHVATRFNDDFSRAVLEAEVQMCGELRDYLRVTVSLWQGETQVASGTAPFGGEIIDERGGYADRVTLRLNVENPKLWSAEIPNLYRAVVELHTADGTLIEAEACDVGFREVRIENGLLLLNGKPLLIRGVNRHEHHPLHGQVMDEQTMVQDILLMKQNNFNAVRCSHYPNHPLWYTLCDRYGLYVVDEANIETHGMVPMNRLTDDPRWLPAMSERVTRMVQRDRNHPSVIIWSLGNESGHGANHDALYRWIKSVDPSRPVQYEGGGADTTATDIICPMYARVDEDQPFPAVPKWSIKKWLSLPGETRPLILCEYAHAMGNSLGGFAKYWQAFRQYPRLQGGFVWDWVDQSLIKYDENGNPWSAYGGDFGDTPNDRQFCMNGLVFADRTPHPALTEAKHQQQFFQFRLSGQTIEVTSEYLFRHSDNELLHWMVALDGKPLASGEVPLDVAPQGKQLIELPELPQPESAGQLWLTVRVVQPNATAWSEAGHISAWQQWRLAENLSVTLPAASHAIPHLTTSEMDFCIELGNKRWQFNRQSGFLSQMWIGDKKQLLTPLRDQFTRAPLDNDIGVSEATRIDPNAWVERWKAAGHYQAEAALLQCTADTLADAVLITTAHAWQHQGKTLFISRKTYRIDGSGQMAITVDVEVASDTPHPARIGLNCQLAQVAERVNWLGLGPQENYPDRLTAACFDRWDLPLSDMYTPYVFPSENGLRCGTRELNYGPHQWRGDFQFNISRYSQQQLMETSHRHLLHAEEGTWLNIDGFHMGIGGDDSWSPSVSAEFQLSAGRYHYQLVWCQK
# [11] = molecular target: T4, Hexokinase HKDC1 (Homo sapiens, UniProt Q2TB90); assay: inhibition of HKDC1 glucose phosphorylation – biochemical, W721R variant, dose response (AID 504729); assay type: functional
# T4 sequence (Q2TB90 whole entry): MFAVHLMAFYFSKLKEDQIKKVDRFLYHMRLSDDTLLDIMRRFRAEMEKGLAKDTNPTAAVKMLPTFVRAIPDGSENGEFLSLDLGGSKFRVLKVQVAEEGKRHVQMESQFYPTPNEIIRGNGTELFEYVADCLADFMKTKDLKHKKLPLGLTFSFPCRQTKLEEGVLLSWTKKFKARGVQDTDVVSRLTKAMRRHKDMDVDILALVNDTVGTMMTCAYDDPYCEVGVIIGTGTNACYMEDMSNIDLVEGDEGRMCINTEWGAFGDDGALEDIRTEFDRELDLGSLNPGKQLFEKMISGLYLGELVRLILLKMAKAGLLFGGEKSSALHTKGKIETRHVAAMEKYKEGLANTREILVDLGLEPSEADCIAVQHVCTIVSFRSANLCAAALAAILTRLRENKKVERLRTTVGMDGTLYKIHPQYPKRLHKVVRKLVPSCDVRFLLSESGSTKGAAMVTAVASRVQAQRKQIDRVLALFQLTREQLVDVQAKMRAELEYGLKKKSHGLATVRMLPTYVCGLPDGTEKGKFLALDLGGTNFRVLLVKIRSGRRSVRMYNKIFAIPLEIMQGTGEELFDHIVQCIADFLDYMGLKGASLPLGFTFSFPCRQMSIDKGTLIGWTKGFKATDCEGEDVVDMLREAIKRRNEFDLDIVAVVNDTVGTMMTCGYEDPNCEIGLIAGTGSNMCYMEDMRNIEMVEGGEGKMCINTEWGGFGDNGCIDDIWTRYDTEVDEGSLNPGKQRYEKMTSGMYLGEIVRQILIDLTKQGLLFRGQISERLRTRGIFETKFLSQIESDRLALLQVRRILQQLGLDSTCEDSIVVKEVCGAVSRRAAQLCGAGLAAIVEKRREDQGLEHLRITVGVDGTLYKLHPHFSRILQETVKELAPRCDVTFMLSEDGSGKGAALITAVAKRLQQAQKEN
# [12] = tested on: CHO; assay: CHO cell viability loss, potency – luminescence, cytotoxicity control for TLR9-MyD88 binding inhibitor project, dose response (AID 588339); assay type: functional, cell-based, hamster; details: Cricetulus griseus;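 note: CHO cells stably coexpressing TLR9 and MyD88 fusions from primary screen; compound exposure lasted 48 hours before viability readout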
# [13] = molecular target: Heat shock protein HSP 90-alpha (Homo sapiens, UniProt P07900); assay type: functional, organism-based
# [14] = molecular target: Beta Lactamase (Pseudomonas aeruginosa, UniProt Q932Y6); assay: BLA reporter interference, concentration series – BLA reporter cells, FRET fluorescence, artefact control for TLR9-MyD88 binding inhibitor project, dose response (AID 588341); assay type: cell-based;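 note: cell based assay in CHO-K1 cells stably expressing beta-lactamase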
# Sequence of Beta Lactamase (Q932Y6 whole entry): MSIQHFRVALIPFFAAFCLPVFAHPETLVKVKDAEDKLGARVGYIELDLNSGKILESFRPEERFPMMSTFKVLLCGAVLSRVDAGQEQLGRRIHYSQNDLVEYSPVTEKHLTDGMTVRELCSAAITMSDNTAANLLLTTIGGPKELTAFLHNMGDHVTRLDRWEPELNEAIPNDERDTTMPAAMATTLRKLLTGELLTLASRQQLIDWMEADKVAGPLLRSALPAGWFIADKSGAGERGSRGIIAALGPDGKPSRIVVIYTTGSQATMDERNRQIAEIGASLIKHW
# [15] = molecular target: T5, Rac GTPase-activating protein 1 (Homo sapiens, UniProt Q9H0H5); assay: blockers of MgcRacGAP-driven Rac1 GTP hydrolysis – biochemical, ADP Hunter fluorescence, primary and confirmatory, confirmation (AID 624330); assay type: functional
# T5 sequence (Q9H0H5 whole entry): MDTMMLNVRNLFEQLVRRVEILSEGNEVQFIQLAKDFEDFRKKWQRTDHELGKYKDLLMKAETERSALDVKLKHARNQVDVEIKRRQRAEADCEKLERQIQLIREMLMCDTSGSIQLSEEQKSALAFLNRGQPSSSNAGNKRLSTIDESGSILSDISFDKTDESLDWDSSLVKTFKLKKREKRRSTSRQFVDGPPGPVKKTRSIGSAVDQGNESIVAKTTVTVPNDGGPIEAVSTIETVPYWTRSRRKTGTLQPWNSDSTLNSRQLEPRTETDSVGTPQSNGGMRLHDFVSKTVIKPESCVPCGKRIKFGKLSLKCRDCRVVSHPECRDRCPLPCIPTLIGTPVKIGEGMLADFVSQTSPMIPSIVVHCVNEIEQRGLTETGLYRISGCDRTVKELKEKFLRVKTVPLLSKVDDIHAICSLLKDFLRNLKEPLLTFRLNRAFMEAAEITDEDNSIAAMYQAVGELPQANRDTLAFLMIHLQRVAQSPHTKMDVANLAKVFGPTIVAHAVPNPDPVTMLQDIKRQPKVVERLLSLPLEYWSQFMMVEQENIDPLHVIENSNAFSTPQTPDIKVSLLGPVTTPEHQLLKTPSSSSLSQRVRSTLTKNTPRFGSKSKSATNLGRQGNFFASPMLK
# [16] = molecular target: T6, Histone-lysine N-methyltransferase NSD2 (Homo sapiens, UniProt O96028); assay type: biochemical
# T6 sequence (O96028 whole entry): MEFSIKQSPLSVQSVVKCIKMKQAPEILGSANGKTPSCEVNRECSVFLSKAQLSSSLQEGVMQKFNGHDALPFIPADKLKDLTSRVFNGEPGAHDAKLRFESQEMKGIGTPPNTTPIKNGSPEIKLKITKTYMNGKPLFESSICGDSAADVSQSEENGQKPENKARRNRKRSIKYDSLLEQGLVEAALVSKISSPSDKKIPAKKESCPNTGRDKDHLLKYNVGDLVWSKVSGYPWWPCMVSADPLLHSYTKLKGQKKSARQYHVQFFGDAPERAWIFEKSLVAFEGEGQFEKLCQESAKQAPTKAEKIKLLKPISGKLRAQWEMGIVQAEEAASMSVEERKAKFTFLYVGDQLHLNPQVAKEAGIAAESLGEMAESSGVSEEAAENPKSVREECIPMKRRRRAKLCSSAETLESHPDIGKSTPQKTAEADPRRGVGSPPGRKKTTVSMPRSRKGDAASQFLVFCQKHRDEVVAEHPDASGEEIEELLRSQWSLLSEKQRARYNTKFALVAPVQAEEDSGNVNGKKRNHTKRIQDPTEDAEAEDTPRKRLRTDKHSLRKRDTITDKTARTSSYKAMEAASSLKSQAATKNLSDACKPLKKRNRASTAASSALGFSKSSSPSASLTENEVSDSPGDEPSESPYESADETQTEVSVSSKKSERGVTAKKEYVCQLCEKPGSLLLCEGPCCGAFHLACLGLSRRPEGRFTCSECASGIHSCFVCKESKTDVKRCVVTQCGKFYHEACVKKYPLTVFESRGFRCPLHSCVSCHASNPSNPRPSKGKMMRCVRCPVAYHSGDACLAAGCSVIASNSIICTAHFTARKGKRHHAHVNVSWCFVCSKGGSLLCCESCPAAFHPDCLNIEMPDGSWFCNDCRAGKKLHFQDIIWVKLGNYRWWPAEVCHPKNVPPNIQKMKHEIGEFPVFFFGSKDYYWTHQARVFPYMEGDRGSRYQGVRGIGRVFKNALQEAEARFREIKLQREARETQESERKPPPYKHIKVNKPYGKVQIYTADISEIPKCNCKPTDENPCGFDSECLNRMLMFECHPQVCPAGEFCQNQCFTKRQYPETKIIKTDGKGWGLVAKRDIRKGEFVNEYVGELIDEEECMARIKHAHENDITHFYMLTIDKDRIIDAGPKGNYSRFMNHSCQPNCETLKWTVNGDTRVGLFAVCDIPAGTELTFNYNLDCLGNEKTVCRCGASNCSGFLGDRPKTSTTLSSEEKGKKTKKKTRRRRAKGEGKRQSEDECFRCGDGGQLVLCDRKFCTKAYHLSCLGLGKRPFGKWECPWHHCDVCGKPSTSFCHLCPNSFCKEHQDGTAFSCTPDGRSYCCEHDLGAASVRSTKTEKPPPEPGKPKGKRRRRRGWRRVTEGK
# [17] = molecular target: NS3 (Hepatitis C virus, UniProt A3EZJ3); assay: PubChem AID 2173; design: species or system Hepacivirus hominis
# Sequence of NS3 (A3EZJ3 whole entry): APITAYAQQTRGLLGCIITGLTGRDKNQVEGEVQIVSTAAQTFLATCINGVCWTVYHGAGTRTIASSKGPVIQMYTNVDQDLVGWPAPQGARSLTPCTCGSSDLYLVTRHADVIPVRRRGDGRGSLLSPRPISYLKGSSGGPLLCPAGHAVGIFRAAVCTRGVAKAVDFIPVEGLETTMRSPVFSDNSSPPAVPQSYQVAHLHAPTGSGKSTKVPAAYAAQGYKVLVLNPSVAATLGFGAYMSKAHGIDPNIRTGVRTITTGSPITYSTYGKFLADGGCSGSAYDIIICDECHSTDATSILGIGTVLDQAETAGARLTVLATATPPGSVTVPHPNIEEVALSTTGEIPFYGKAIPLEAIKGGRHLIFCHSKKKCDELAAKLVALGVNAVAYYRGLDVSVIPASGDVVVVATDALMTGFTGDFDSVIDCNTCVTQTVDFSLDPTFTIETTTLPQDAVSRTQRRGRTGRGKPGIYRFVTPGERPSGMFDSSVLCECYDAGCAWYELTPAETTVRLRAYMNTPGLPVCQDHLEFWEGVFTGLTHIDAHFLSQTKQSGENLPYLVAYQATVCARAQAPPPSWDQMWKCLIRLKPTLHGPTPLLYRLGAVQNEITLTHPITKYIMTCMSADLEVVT
# [18] = molecular target: Induced myeloid leukemia cell differentiation protein Mcl-1 (Homo sapiens, UniProt Q07820); assay type: functional
# Sequence of Induced myeloid leukemia cell differentiation protein Mcl-1 (Q07820 whole entry): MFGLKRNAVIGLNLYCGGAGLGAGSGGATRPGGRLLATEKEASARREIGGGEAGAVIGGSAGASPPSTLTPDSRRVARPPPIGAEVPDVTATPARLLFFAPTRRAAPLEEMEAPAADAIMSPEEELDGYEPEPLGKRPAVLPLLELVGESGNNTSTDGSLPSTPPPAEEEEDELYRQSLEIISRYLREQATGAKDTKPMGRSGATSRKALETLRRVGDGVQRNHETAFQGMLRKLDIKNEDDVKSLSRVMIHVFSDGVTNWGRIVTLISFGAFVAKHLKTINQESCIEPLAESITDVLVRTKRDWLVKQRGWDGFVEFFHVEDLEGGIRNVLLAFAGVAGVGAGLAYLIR
# [19] = molecular target: DNA (cytosine-5)-methyltransferase 1 (Homo sapiens, UniProt P26358); assay: inhibition of DNA methylation by DNMT1 – biochemical, fluorescent molecular beacon, confirmation (AID 602386); assay type: functional
# [20] = molecular target: T7, Small ubiquitin-related modifier 1 (Homo sapiens, UniProt P63165); assay: SUMO1 protein interaction blockers, potency – biochemical, fluorescence polarization, uHTS hits, dose response (AID 624382); assay type: functional; details: read-out: IC50_Mean
# T7 sequence (P63165 whole entry): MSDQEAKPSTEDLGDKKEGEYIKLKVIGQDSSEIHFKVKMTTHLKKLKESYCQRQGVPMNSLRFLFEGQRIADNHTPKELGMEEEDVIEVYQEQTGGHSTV
# [21] = molecular target: T7, Small ubiquitin-related modifier 1; assay: SUMO1 protein-protein binding blockers, potency – biochemical, FRET, dose response (AID 624383); assay type: functional; details: read-out: IC50_Mean
# [22] = molecular target: Albumin (Bos taurus, UniProt P02769); assay: Counterscreen for inhibitors of T-cell receptor (TCR)-CD3 interaction: Fluorescence-based biochemical high throughput dose response assay to identify inhibitors of T-cell receptor (TCR)-CD3 interaction using a TAMRA-labeled BSA probe.; assay type: functional
# Sequence of Albumin (P02769 whole entry): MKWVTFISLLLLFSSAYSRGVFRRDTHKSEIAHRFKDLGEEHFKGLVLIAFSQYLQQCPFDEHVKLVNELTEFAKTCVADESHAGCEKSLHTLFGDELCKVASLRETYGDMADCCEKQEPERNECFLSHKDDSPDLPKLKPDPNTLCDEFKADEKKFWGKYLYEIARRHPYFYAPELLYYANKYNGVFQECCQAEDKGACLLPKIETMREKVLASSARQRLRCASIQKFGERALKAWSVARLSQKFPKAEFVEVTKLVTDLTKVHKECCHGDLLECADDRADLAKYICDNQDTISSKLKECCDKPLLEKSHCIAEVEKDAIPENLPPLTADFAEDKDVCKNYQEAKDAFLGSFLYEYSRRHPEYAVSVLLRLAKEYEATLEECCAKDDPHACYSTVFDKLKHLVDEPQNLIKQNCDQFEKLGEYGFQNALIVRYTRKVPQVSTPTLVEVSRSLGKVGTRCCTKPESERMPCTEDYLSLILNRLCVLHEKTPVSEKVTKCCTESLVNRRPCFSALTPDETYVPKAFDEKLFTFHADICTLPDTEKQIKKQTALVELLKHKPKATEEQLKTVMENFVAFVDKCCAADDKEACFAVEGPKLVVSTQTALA
smiles,measurement,setting,value
O=C1c2ccccc2C(=O)c2c1cccc2N(CCO)CCO,IC50,[1],8.44 µM (active)
same,IC50,[2],5.51 µM (active)
same,EC50,[3],19.6 µM (active)
same,EC50,[4],17 µM (active)
same,IC50,[5],28.8 µM (active)
same,IC50,[6],> 66 µM (inactive)
same,IC50,[7],47.7 µM (inactive)
O=C(NCc1ccc(Cl)cc1Cl)Nc1ccc(Cl)nc1,EC50,[8],3.74 µM (active)
O=C1C(Cl)=C(NCCc2ccccc2)C(=O)c2ccccc21,IC50,[9],19.7 µM (active)
same,IC50,[10],> 66.6 µM (inactive)
same,IC50,[11],7.92 µM (active)
same,IC50,[12],1.58 µM (active)
same,AC50,[13],3.38 µM (active)
same,IC50,[14],17.7 µM (inactive)
same,IC50,[5],9.15 µM (active)
same,IC50,[6],> 66 µM (inactive)
same,IC50,[7],> 66 µM (inactive)
same,IC50,[15],218 µM (active)
same,AC50,[16],3.78 µM (active)
O=C(O)c1ccccc1/C=N/NC(=O)c1cc(-c2ccco2)nc2ccccc12,IC50,[17],7.35 µM (active)
same,IC50,[18],2.54 µM (active)
same,IC50,[19],5.4 µM (active)
same,IC50,[20],> 66.6 µM (inactive)
same,IC50,[21],9.51 µM (active)
same,IC50,[22],> 94.1 µM (inactive)
